Measured values: patent publication US4992418A, “Superactive human insulin analogue-[10-Aspartic Acid-B]Human Insulin” (Mount Sinai School of Medicine, priority 1987, dated 1991)

Key:
insulin receptors = insulin receptors (Rattus norvegicus, UniProt P15127); assay: Standard in vitro assays measuring relative insulin potency (summary statements); conditions: in vitro experiments of the Examples
[1] = test system: Guinea pig antiserum to porcine insulin; conditions: relative to bovine or porcine insulin
Method: Guinea pig antiserum to porcine insulin and goat anti-guinea pig-γ globulin were used at a 1:25 dilution in assay buffer (sodium phosphate, 0.04M, pH 7.6, containing 0.154M NaCl, 0.1% gelatin, and 0.01% thimerosal). […] After incubation at room temperature overnight, 0.2 ml of the precipitating antibody (goat anti-guinea pig-γ globulin) was added, and the tubes were further incubated overnight at room temperature. Immune precipitates were collected on cellulose-acetate filters and washed with two successive 1.0 mL portions of ice-cold assay buffer. Filters were dried and radioactivity was counted in a scintillation counter in Filtron-X®. Straight-line plots of Co /Ci were constructed by linear regression analysis as described by Hales et al., Biochem. J. (1963), vol.

[2] = target: T1, insulin receptors in rat liver plasma membranes (Rattus norvegicus, UniProt P15127); assay: Insulin receptor binding assay (125I-insulin displacement, rat liver plasma membranes)
T1 construct: Rat liver plasma membranes were prepared as described by Horvat et al; from tissue; host or cells: rat liver plasma membranes
T1 sequence (P15127 27-759 limits assumed): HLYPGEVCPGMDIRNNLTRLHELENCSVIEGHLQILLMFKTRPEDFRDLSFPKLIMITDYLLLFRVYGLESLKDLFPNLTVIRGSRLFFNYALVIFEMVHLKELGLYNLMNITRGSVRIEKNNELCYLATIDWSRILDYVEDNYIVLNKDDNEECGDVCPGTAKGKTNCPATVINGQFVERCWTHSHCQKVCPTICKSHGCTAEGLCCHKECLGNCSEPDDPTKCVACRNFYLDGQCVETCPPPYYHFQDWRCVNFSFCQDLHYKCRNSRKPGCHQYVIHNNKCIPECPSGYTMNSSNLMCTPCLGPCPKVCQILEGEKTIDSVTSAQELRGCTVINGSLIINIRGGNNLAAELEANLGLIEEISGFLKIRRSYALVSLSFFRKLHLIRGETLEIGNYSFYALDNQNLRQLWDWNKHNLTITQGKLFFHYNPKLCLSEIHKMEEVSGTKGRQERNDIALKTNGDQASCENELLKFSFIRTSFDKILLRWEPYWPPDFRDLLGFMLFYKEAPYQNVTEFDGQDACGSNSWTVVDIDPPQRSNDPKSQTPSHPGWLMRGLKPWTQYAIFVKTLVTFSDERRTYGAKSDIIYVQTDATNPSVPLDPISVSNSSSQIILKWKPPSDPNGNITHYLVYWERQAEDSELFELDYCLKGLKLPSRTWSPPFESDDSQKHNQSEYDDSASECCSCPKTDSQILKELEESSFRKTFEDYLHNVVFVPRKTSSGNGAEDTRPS
T1 sequence (P15127 764-1383 partner limits assumed): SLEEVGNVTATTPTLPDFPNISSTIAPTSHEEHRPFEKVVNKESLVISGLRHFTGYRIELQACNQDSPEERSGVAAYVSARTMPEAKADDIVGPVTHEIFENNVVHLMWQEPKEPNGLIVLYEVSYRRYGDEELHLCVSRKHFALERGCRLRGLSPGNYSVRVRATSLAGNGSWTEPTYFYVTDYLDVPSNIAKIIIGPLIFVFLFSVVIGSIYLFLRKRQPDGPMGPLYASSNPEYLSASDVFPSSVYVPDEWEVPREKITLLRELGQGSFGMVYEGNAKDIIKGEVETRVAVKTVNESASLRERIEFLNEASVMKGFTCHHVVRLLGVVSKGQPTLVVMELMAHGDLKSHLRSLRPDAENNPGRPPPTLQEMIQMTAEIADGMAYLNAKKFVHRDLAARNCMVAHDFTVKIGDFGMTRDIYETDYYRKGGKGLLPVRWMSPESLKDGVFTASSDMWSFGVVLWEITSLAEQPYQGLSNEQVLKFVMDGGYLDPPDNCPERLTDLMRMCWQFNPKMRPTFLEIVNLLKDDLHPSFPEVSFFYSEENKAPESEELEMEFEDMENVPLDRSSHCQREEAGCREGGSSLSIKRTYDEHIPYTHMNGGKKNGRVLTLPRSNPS
Method: Receptor binding assays using rat liver plasma membranes were performed as described by Kitagawa et al., Biochemistry (1984), vol. 23, pp. 1405-1413. Rat liver plasma membranes were prepared as described by Horvat et al., Biochim. Biophys. Acta (1975), vol. 382, pp. 609-620.
Following incubation for 45 min at 24° C., the mixtures were diluted with 2.0 ml of ice cold 0.1M sodium phosphate, pH 7.4, containing 0.1% fraction V bovine serum albumin and immediately filtered through cellulose-acetate filters. The filters were washed twice with the ice cold buffer, dried, and then radioactivity was counted in a scintillation counter using Filtron-X®. Nonspecific binding, defined as radioactivity remaining on the filters when the incubations contained 1×10^-5 M unlabeled insulin, was subtracted from all values.
The data points shown in FIG. 3 represent the mean of triplicate determinations in a representative assay which was performed four times. The maximum binding in these assays amounted to 8.2% of the input radioactivity.

Sequence of insulin receptors (P15127 27-759 limits assumed): as the sequence (P15127 27-759 limits assumed) above
Sequence of insulin receptors (P15127 764-1383 partner limits assumed): as the sequence (P15127 764-1383 partner limits assumed) above
Method for rat adipocytes: The assays measured the ability of the insulin analogue as compared to bovine insulin to convert, [3-^3 H] glucose into lipids.
Adipocytes were prepared by incubating epididymal and perirenal fat pads obtained from male rats weighing 200-300 g with 1.0 mg/ml collagenase for 60 min at 37° C., followed by filtration through gauze and then through fine-mesh silk. Cells were washed twice by flotation in a clinical centrifuge before suspension for use. The incubation medium was Krebs-Ringer bicarbonate containing half the recommended calcium, 0.5 mM glucose, and 3% fatty acid free bovine serum albumin, with 95% O2 -5% CO2 as the gas phase. […] Cells were preincubated for 45 min at 37° C. before the addition of [3-^3 H] glucose. Incubation was continued for 60 min and stopped by the addition of 0.2 ml of 5N H2 SO4 and 0.2 ml of corn oil to aid in the extraction of lipids. Samples were extracted with 10 ml of Soluscint-0® for 30 min at room temperature before counting the radioactivity in a scintillation counter. […] Zero and 100% stimulation of lipogenesis were defined as radioactivity observed in the absence and presence, respectively, of 9.1×10^-10 M insulin (5.5 ng/ml).
Stimulation, expressed as percent of maximum, was plotted as a function of the agonist concentration. […]

Substance: [10-Aspartic acid-B] human insulin
- In vitro activity relative to natural insulin (in words) (insulin receptors): several fold more active
- Agonist character / maximum stimulation of lipogenesis (rat adipocytes; compared with natural bovine insulin, FIG. 4): full agonist
- Relative potency: concentration ratio required to produce 50% of maximum stimulation of lipogenesis (rat adipocytes; relative to bovine insulin, isolated rat adipocytes, assays performed four times): 435±144%
- Potency in radioimmunoassay (ratio of slopes of Co/Ci plots) [1]: approximately equal potency
- Shape of dose response curves in receptor binding ([2]; compared with bovine insulin, FIG. 3): essentially parallel
- Binding to the insulin receptor relative to natural insulins ([2]; more tightly than natural insulins): about five
- Relative potency: concentration ratio required to inhibit 50% of specific 125I-insulin binding ([2]; relative to bovine insulin, rat liver plasma membranes, assay performed four times): about 534±146%
